US12391737B2, “Soluble NPY2 receptor agonists” (Boehringer Ingelheim International GmbH, priority 2020, dated 2025)
*1 amine or outer side, *2 acyl side, *3 side chain or, on linkers, in order; H or OH if unused. Where a SMILES comes first, the peptide text is derived from it. Side-chain parts run from the residue outwards. The star is where a group is joined. C18 diacid = O=C(O)CCCCCCCCCCCCCCCCC(=O)*; γGlu = O=C(O)[C@H](CCC(=O)[*:2])N[*:1]; Isovaleryl = CC(C)CC(=O)*; Ahx = NCCCCCC(=O)O

Key:
[1] = Solubility determination; settings: for Sol6: pH 6; for Sol7: pH 7
Summary of the method: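 Shake-flask style: 10 mg/ml peptide (TFA salt), 0.1 M sodium diphosphate pH 6.4/7.0, 600 rpm, 2 h, RT; filter; dilute 1 mg/ml in 50% MeCN; RP-UPLC, 0–100% B over 2 min, 50 °C. Solubility = sample/control area ratio. Final pH recorded.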

[2] = molecular target: T1, Human Neuropeptide Y2 Receptor (Homo sapiens, UniProt P49146); assay: Radioligand binding competition assay (RLB); settings: Table 3, 125I-PYY(1-36) competition; read-out: Ki
T1 construct: purchased CHEMICON HTS066M
T1 sequence (P49146 1-381): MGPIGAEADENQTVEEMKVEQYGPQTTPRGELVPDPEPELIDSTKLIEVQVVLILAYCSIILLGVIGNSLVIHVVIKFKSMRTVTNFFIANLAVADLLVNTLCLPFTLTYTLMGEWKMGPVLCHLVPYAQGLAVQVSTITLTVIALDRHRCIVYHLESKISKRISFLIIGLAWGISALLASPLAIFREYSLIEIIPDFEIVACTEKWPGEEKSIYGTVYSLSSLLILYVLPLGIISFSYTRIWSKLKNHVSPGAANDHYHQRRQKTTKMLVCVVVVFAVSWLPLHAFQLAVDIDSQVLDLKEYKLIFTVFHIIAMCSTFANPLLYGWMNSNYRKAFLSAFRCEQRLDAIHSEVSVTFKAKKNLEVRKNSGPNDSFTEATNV
Summary of the method: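 IC50 values come from sigmoidal dose-response fits of scintillation counts after peptides competed for radioligand binding at receptor membranes (0.5 μg protein/well). Incubation ran 2 h at room temperature in HEPES buffer, pH 7.4, with Mg2+, Ca2+ and 0.2% ovalbumin.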

Compound	Sol6 [1] [mg/mL]	Sol7 [1] [mg/mL]	Ki [2] [nM]
CC(C)CC(=O)N[C@@H](C)C(=O)N1CCC[C@H]1C(=O)N[C@@H](CCC(=O)O)C(=O)N[C@@H](CCCCNC(=O)CCCCCNC(=O)CC[C@H](NC(=O)CCCCCCCCCCCCCCCCC(=O)O)C(=O)O)C(=O)N1CCC[C@H]1C(=O)N[C@@H](CCC(=O)O)C(=O)N[C@@H](C)C(=O)N[C@@H](CC(=O)O)C(=O)N[C@@H](CO)C(=O)N[C@@H](CO)C(=O)N1CCC[C@H]1C(=O)N[C@@H](CCC(=O)O)C(=O)N[C@@H](CCC(=O)O)C(=O)N[C@@H](CC(C)C)C(=O)N[C@@H](CCC(N)=O)C(=O)N[C@@H](CCCNC(=N)N)C(=O)N[C@@H](Cc1ccc(O)cc1)C(=O)N[C@@H](Cc1ccc(O)cc1)C(=O)N[C@H](C(=O)N[C@@H](CO)C(=O)N[C@@H](CC(C)C)C(=O)N[C@@H](CCCNC(=N)N)C(=O)N[C@@H](Cc1c[nH]cn1)C(=O)N[C@@H](Cc1ccc(O)cc1)C(=O)N[C@@H](Cc1ccc(O)cc1)C(=O)N[C@@H](CC(N)=O)C(=O)N[C@@H](Cc1c[nH]c2ccccc12)C(=O)N[C@@H](CC(C)C)C(=O)N[C@H](C(=O)N[C@@H](CCCNC(=N)N)C(=O)N[C@@H](CCC(N)=O)C(=O)N[C@@H](CCCNC(=N)N)C(=O)N[C@@H](Cc1ccc(O)cc1)C(N)=O)[C@@H](C)O)C(C)C [Compound 29, N{alpha-4}-(3-methylbutanoyl)-N{epsilon-7}-(6-[(4S)-4-carboxy-4-(17-carboxyheptadecanamido)butanamido]hexanoyl)[4A,7K,9E,10A,12S,18Q,22V,28Y,30W,31L]-hPYY(4-36)] (Isovaleryl-APEK([Ahx-γGlu-C18 diacid])PEADSSPEELQRYYVSLRHYYNWLTRQRY-NH2)	9.9	10.0	1.36
CC(C)CC(=O)N[C@@H](C)C(=O)N1CCC[C@H]1C(=O)N[C@@H](CCC(=O)O)C(=O)N[C@@H](CCCCNC(=O)CCCCCNC(=O)CC[C@H](NC(=O)CCCCCCCCCCCCCCCCC(=O)O)C(=O)O)C(=O)N1CCC[C@H]1C(=O)N1CCC[C@H]1C(=O)N[C@@H](C)C(=O)N[C@@H](CC(=O)O)C(=O)N[C@@H](C)C(=O)N[C@H](C(=O)N1CCC[C@H]1C(=O)N[C@@H](CCC(=O)O)C(=O)N[C@@H](CCC(=O)O)C(=O)N[C@@H](CC(C)C)C(=O)N[C@@H](CCC(N)=O)C(=O)N[C@@H](CCCNC(=N)N)C(=O)N[C@@H](Cc1ccc(O)cc1)C(=O)N[C@@H](Cc1ccc(O)cc1)C(=O)N[C@H](C(=O)N[C@@H](CO)C(=O)N[C@@H](CC(C)C)C(=O)N[C@@H](CCCNC(=N)N)C(=O)N[C@@H](Cc1c[nH]cn1)C(=O)N[C@@H](Cc1ccc(O)cc1)C(=O)N[C@@H](Cc1ccc(O)cc1)C(=O)N[C@@H](CC(N)=O)C(=O)N[C@@H](Cc1c[nH]c2ccccc12)C(=O)N[C@@H](CC(C)C)C(=O)N[C@H](C(=O)N[C@@H](CCCNC(=N)N)C(=O)N[C@@H](CCC(N)=O)C(=O)N[C@@H](CCCNC(=N)N)C(=O)N[C@@H](Cc1ccc(O)cc1)C(N)=O)[C@@H](C)O)C(C)C)[C@@H](C)O [Compound 30, N{alpha-4}-(3-methylbutanoyl)-N{epsilon-7}-(6-[(4S)-4-carboxy-4-(17-carboxyheptadecanamido)butanamido]hexanoyl)[4A,7K,9P,10A,13T,18Q,22V,28Y,30W,31L]-hPYY(4-36)] (Isovaleryl-APEK([Ahx-γGlu-C18 diacid])PPADATPEELQRYYVSLRHYYNWLTRQRY-NH2)	0.1	9.4	0.3
CC(C)CC(=O)N[C@@H](C)C(=O)N1CCC[C@H]1C(=O)N[C@@H](CCC(=O)O)C(=O)N[C@@H](CCCCNC(=O)CCCCCNC(=O)CC[C@H](NC(=O)CCCCCCCCCCCCCCCCC(=O)O)C(=O)O)C(=O)N1CCC[C@H]1C(=O)N[C@@H](CCC(=O)O)C(=O)N[C@@H](CCC(=O)O)C(=O)N[C@@H](CC(=O)O)C(=O)N[C@@H](C)C(=O)N[C@H](C(=O)N1CCC[C@H]1C(=O)N[C@@H](CCC(=O)O)C(=O)N[C@@H](CCC(=O)O)C(=O)N[C@@H](CC(C)C)C(=O)N[C@@H](CCC(N)=O)C(=O)N1CCC[C@H]1C(=O)N[C@@H](Cc1ccc(O)cc1)C(=O)N[C@@H](Cc1ccc(O)cc1)C(=O)N[C@H](C(=O)N[C@@H](CO)C(=O)N[C@@H](CC(C)C)C(=O)N[C@@H](CCCNC(=N)N)C(=O)N[C@@H](Cc1c[nH]cn1)C(=O)N[C@@H](Cc1ccc(O)cc1)C(=O)N[C@@H](Cc1ccc(O)cc1)C(=O)N[C@@H](CC(N)=O)C(=O)N[C@@H](Cc1c[nH]c2ccccc12)C(=O)N[C@@H](CC(C)C)C(=O)N[C@H](C(=O)N[C@@H](CCCNC(=N)N)C(=O)N[C@@H](CCC(N)=O)C(=O)N[C@@H](CCCNC(=N)N)C(=O)N[C@@H](Cc1ccc(O)cc1)C(N)=O)[C@@H](C)O)C(C)C)[C@@H](C)O [Compound 31, N{alpha-4}-(3-methylbutanoyl)-N{epsilon-7}-(6-[(4S)-4-carboxy-4-(17-carboxyheptadecanamido)butanamido]hexanoyl)[4A,7K,9E,13T,18Q,19P,22V,28Y,30W,31L]-hPYY(4-36)]	>10.0	10.0	34.7
CC(C)CC(=O)N[C@@H](C)C(=O)N1CCC[C@H]1C(=O)N[C@@H](C)C(=O)N[C@@H](CCCCNC(=O)CCCCCNC(=O)CC[C@H](NC(=O)CCCCCCCCCCCCCCCCC(=O)O)C(=O)O)C(=O)N1CCC[C@H]1C(=O)N[C@@H](CCC(=O)O)C(=O)N[C@@H](CCC(=O)O)C(=O)N[C@@H](CC(=O)O)C(=O)N[C@@H](C)C(=O)N[C@@H](CO)C(=O)N1CCC[C@H]1C(=O)N[C@@H](CCC(=O)O)C(=O)N[C@@H](CCC(=O)O)C(=O)N[C@@H](CC(C)C)C(=O)N[C@@H](CCC(N)=O)C(=O)N[C@@H](CCCNC(=N)N)C(=O)N[C@@H](Cc1ccc(O)cc1)C(=O)N[C@@H](Cc1ccc(O)cc1)C(=O)N[C@H](C(=O)N[C@@H](CO)C(=O)N[C@@H](CC(C)C)C(=O)N[C@@H](CCCNC(=N)N)C(=O)N[C@@H](Cc1c[nH]cn1)C(=O)N[C@@H](CCC(N)=O)C(=O)N[C@@H](Cc1ccc(O)cc1)C(=O)N[C@@H](CC(N)=O)C(=O)N[C@@H](Cc1c[nH]c2ccccc12)C(=O)N[C@@H](CC(C)C)C(=O)N[C@H](C(=O)N[C@@H](CCCNC(=N)N)C(=O)N[C@@H](CCC(N)=O)C(=O)N[C@@H](CCCNC(=N)N)C(=O)N[C@@H](Cc1ccc(O)cc1)C(N)=O)[C@@H](C)O)C(C)C [Compound 32, N{alpha-4}-(3-methylbutanoyl)-N{epsilon-7}-(6-[(4S)-4-carboxy-4-(17-carboxyheptadecanamido)butanamido]hexanoyl)[4A,6A,7K,9E,18Q,22V,27Q,28Y,30W,31L]-hPYY(4-36)]	8.2	9.3	13.6
CC[C@H](C)[C@H](NC(=O)[C@H](Cc1ccc(O)cc1)NC(=O)[C@H](Cc1ccc(O)cc1)NC(=O)[C@H](CCCNC(=N)N)NC(=O)[C@H](CCC(N)=O)NC(=O)[C@H](CC(C)C)NC(=O)[C@H](CCC(=O)O)NC(=O)[C@H](CCC(=O)O)NC(=O)[C@@H]1CCCN1C(=O)[C@H](CCC(=O)O)NC(=O)[C@H](C)NC(=O)[C@H](CC(=O)O)NC(=O)[C@H](CCC(=O)O)NC(=O)[C@H](CCC(=O)O)NC(=O)[C@@H]1CCCN1C(=O)[C@H](CCCCNC(=O)CCCCCNC(=O)CC[C@H](NC(=O)CCCCCCCCCCCCCCCCC(=O)O)C(=O)O)NC(=O)[C@H](C)NC(=O)[C@@H]1CCCN1C(=O)[C@H](C)NC(=O)CC(C)C)C(=O)N[C@@H](CO)C(=O)N[C@@H](CC(C)C)C(=O)N[C@@H](CCCNC(=N)N)C(=O)N[C@@H](Cc1c[nH]cn1)C(=O)N[C@@H](Cc1ccc(O)cc1)C(=O)N[C@@H](Cc1ccc(O)cc1)C(=O)N[C@@H](CC(N)=O)C(=O)N[C@@H](Cc1c[nH]c2ccccc12)C(=O)N[C@@H](CC(C)C)C(=O)N[C@H](C(=O)N[C@@H](CCCNC(=N)N)C(=O)N[C@@H](CCC(N)=O)C(=O)N[C@@H](CCCNC(=N)N)C(=O)N[C@@H](Cc1ccc(O)cc1)C(N)=O)[C@@H](C)O [Compound 33, N{alpha-4}-(3-methylbutanoyl)-N{epsilon-7}-(6-[(4S)-4-carboxy-4-(17-carboxyheptadecanamido)butanamido]hexanoyl)[4A,6A,7K,9E,13E,18Q,22I,28Y,30W,31L]-hPYY(4-36)]	7.2	8.3	2.53
